Reference: patent US20240301409A1, “Chemically Modified Small Activating RNA” (RACTIGEN THERAPEUTICS, priority 2021, published 2024)
Oligonucleotides are written 5' to 3', each unit as a sugar letter and its base; * is a phosphorothioate linkage, no mark a phosphodiester; rarer units and linkages stand in square brackets, end groups in braces. Plain capitals give the bases only. m = 2'-O-methyl; r = 2'-OH (RNA); f = 2'-fluoro

Experiments:
RNase A = target: T1, RNase A (Bos taurus, UniProt P61823); assay: saRNA stability analysis in the presence of RNase A (agarose gel); conditions: incubation 0 to 96 hours
T1 sequence (P61823 27-150): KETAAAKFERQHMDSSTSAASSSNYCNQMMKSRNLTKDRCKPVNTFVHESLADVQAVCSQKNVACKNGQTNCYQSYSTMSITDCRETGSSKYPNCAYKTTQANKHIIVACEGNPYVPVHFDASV
Method: The duplexes obtained at each time point above were each added to 1 μL of 10× loading buffer, and then frozen in liquid nitrogen. After incubation, all samples were detected for the double-stranded RNA by 4% agarose gel electrophoresis, and the content of each duplex was analyzed by Image J software.
The duplexes obtained at each time point indicated above were each added to 1 μL of 10× loading buffer, and then frozen in liquid nitrogen. After incubation, all samples were detected for the double-stranded RNA by 4% agarose gel electrophoresis, and the content of each duplex was analyzed by Image J software.
saRNA (1.5 μL, 10 μM) was incubated at a final concentration of 0.02 mg/mL in PBS in the presence of RNase A (Amresco, OH, USA) at 37° C. for different durations. At the end of the incubation, the mixture was snap frozen in liquid nitrogen to stop nuclease activity. Samples were analyzed on a 4% agarose gel and examined for duplex degradation.
All chemically modified duplexes (Rag1-40-1 to Rag1-40-32) were incubated with 0.02 μg/L of RNase A for different durations (0 to 96 hours). At the end of the incubation, the size and amount of duplexes were detected by agarose gel electrophoresis.

TNF-α = assay: PBMC cytokine release assay, TNF-α (ELISA); type: cell-based, human; conditions: 10 nM, 24 hours
Method: Data represent mean±SD of two independent experiments. […] The values below the line indicate suppressed activities.
Each treatment group was analyzed in triplicate.

[1] = test system: Rag1-40 target sequence in the 3′ UTR of firefly luciferase, COS-1 cells; assay: Analysis of off-target effects (pOff-Target dual luciferase reporter in COS-1 cells); conditions: lysed 48 hours after transfection, luciferase activity
[2] = Stability of RNA duplex in human urine (agarose gel); conditions: 37° C.
Method: Double-stranded RNA (7.5 μL, 10 μM) diluted in 17.5 μL PBS was incubated with 25 μL human fresh urine at 37° C. for 0, 1, 24 and 48 hours, respectively. The duplexes obtained at each time point indicated above were each added to 1 μL of 10× loading buffer, and then frozen in liquid nitrogen. After incubation, all samples were detected for the double-stranded RNA by 4% agarose gel electrophoresis, and the content of each duplex was analyzed by Image J software.
To further test the stability of the chemically modified double-stranded saRNA in human urine, the duplexes were incubated in urine for different durations ranging from 0 to 48 hours.

INF-α = assay: PBMC cytokine release assay, INF-α (ELISA); conditions: PBMC, 10 nM, 24 hours
Method: Cells were treated with the indicated duplexes at a final concentration of 10 nM or lipopolysaccharide (LPS) as a positive control for 24 hours, respectively. The levels of INF-α and TNF-α in the cell supernatant were detected by ELISA kit. […] Data represent mean±SD of two independent experiments.
Human peripheral blood mononuclear cells (Allcells, Alameda, CA) were seeded in a 96-well microplate at a density of approximately 10×10^4 cells/well. Transfection of dsRNA was performed using RNAiMAX (Invitrogen, Carlsbad, CA) following manufacturer's instructions. Supernatants were collected 24 hours after transfection and immediately assayed for IFN-α and TNF-α production using ELISA kit (R&D Systems). Each treatment group was analyzed in triplicate.
To assess the immunostimulatory effect of chemically modified saRNAs, human peripheral blood mononuclear cells (PBMC) from healthy donors were incubated with the double-stranded saRNAs, and INF-α and TNF-α levels in the supernatant of treated cells after 24 hours were measured.

## Rag1-40-3: saRNA duplex: sense mCmCAACUCAUUCUCCAAGmUmC (SEQ ID NO 5); antisense fUmAfCfUfUmGmGmAmGmAmAfUmGmAmGfUfUmGmGfCmA (SEQ ID NO 8) (sense mCmCrArArCrUrCrArUrUrCrUrCrCrArArGmUmC)
RNase A
  degradation of duplex at 96 hours: little or no signs of degradation
TNF-α
  immunostimulatory effect (TNF-α induction) compared with Rag1-40, in words: unchanged immunostimulatory activity
[1]
  off-target effect compared to unmodified Rag1-40, in words: completely inhibited

## Rag1-40-17: saRNA duplex: sense mCmCAACUCAUUCUCCAAG*U*C (SEQ ID NO 15); antisense fUAfCfUfUGGAGAAfUGAGfUfUGGfCA (SEQ ID NO 6) (sense CCAACUCAUUCUCCAAGUC; antisense UACUUGGAGAAUGAGUUGGCA; 2'-OMe, 2'-F, phosphorothioates; modified_base (1)..(2) (1,2)=2′-O-methyl(2′-OMe); modified_base (17)..(19) (17,18,19)=phosphorothioate (PS) backbone modification; modified_base (1)..(20) (1,3,4,5,12,16,17,20)=2′-fluoro)
RNase A
  degradation of duplex at 96 hours: little or no signs of degradation
[2]
  degradation of duplex at 48 hours: no sign of degradation
[1]
  off-target effect compared to unmodified Rag1-40, in words: mitigated or similar off-target effects

## Rag1-40-25: saRNA duplex: sense fCfCAACUCAUUCUCCAAG*U*C (SEQ ID NO 16); antisense fUAfCfUfUGGAGAAfUGAGfUfUGGfCA (SEQ ID NO 6) (sense CCAACUCAUUCUCCAAGUC; antisense UACUUGGAGAAUGAGUUGGCA; 2'-F, phosphorothioates; modified_base (1)..(2) (1,2)=2′-fluoro; modified_base (17)..(19) (17,18,19)=phosphorothioate (PS) backbone modification; modified_base (1)..(20) (1,3,4,5,12,16,17,20)=2′-fluoro)
RNase A
  degradation of duplex at 96 hours: little or no signs of degradation
[2]
  degradation of duplex at 48 hours: no sign of degradation
[1]
  off-target effect compared to unmodified Rag1-40, in words: mitigated or similar off-target effects

## Rag1-40-29: saRNA duplex: sense fCfCAACUCAUUCUCCAAG*U*C (SEQ ID NO 16); antisense UACUfUGGAGAAfUGAGUfUGG*fC*A (SEQ ID NO 10) (sense CCAACUCAUUCUCCAAGUC; antisense UACUUGGAGAAUGAGUUGGCA; 2'-F, phosphorothioates; modified_base (1)..(2) (1,2)=2′-fluoro; modified_base (17)..(19) (17,18,19)=phosphorothioate (PS) backbone modification; modified_base (5)..(20) (5,12,17,20)=2′-fluoro; modified_base (19)..(21) (19,20,21)=phosphorothioate (PS) backbone modification)
[2]
  degradation of duplex at 48 hours: mostly degraded
[1]
  off-target effect compared to unmodified Rag1-40, in words: mitigated or similar off-target effects
INF-α
  immunostimulatory activity (INF-α) compared with Rag1-40, in words: reduced immunostimulatory activity
